Measurements from PubChem BioAssay (NCI).
“And” between values parts separate entries of the source, which are not always exact repeats. Equal values may be shown once.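 Briefly, cells in 96-well plates were exposed to five compound concentrations for 48 h, and endpoints were estimated by linear interpolation. At the GI50, growth is halved. TGI is the concentration that stops growth completely.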

What was measured:
Assay in all cases: NCI-60 cell line screen, 48 h
EKVX NSCLC = system: EKVX NSCLC
SK-MEL-28 melanoma = system: SK-MEL-28 melanoma
HCT-116 colon = system: HCT-116 colon
SF-268 CNS = system: SF-268 CNS
SR leukemia = system: SR leukemia
M14 melanoma = system: M14 melanoma
HT29 colon = system: HT29 colon
NCI-H460 lung = system: NCI-H460 lung
U251 CNS = system: U251 CNS
MDA-MB-231 breast = system: MDA-MB-231 breast

Compound | TGI (EKVX NSCLC) | TGI (SK-MEL-28 melanoma) | TGI (HCT-116 colon) | TGI (SF-268 CNS) | TGI (SR leukemia) | TGI (M14 melanoma) | TGI (HT29 colon) | TGI (NCI-H460 lung) | TGI (U251 CNS) | TGI (MDA-MB-231 breast) | GI50 (SK-MEL-28 melanoma) | GI50 (MDA-MB-231 breast) | GI50 (HCT-116 colon) | GI50 (SF-268 CNS) | GI50 (SR leukemia) | GI50 (M14 melanoma) | GI50 (HT29 colon) | GI50 (NCI-H460 lung) | GI50 (U251 CNS) | GI50 (EKVX NSCLC)
COC(=O)C(=O)C(C(=O)C(=O)Nc1ccc(C)cc1C)c1nc2ccccc2[nH]c1=O (centres undefined) | > 100 µM | > 100 µM | > 100 µM | > 100 µM | > 100 µM | > 100 µM | > 100 µM | > 100 µM | > 100 µM |  |  |  |  |  |  |  |  |  |  | 
CCc1cccc(C)c1NC(C)=O | > 100 µM | > 100 µM | > 100 µM |  |  | > 100 µM | > 100 µM | > 100 µM | > 100 µM |  |  |  |  |  |  |  |  |  |  | 
COC(=O)C(=O)C(C(=O)C=C(C)C)C(=O)C(=O)Nc1ccc(Cl)cc1C (centres undefined) | > 100 µM | > 100 µM | > 100 µM | > 100 µM | 45.2 µM | > 100 µM | > 100 µM | > 100 µM | > 100 µM |  |  |  |  |  |  |  |  |  |  | 
CC(C)CC(N)C(=O)O (centres undefined) |  | > 100 µM | > 100 µM | > 100 µM |  | > 100 µM | > 100 µM | > 100 µM | > 100 µM | > 100 µM |  |  |  |  |  |  |  |  |  | 
Cc1cc(NS(=O)(=O)c2ccc(NC(=O)c3cccc4c(=O)c5ccccc5[nH]c34)cc2)no1 | > 100 µM | > 100 µM | > 100 µM | > 100 µM | 80.8 µM |  | > 100 µM | > 100 µM | > 100 µM |  |  |  |  |  |  |  |  |  |  | 
Cc1ccc(N=NC(C(=O)c2ccccc2)C(=O)c2ccccc2)cc1 | > 100 µM | > 100 µM | 65.6 µM | > 100 µM |  | 34.5 µM | 62.2 µM |  | > 100 µM |  |  |  |  |  |  |  |  |  |  | 
CC(=O)SCCC1c2[nH]c3ccccc3c2CCN1O (centres undefined) | > 100 µM | > 100 µM |  | > 100 µM |  | > 100 µM | > 100 µM | > 100 µM | > 100 µM |  |  |  |  |  |  |  |  |  |  | 
CC(C)(C)C1=CC(=CC=C2C=CN(CCCCCCCCCCCO)C=C2)C=C(C(C)(C)C)C1=O | 5.61 µM | 3 µM | 3.05 µM | 3.83 µM |  | 3.57 µM | > 25.7 µM | 4.55 µM | 2.68 µM | 3.28 µM |  |  |  |  |  |  |  |  |  | 
Cc1cc(C)cc(Nc2cc(C)nc3nc(C(F)(F)F)nn23)c1 |  | > 100 µM | > 100 µM | > 100 µM | > 100 µM | > 100 µM | > 100 µM | > 100 µM | > 100 µM | > 100 µM | > 100 µM | > 100 µM | 85 µM | 44.4 µM | > 100 µM | > 100 µM | > 100 µM | > 100 µM | > 100 µM | 
Cc1cccc(N2C(=O)C(Cl)=C(Cl)C2=O)c1 | > 100 µM | > 100 µM | > 100 µM | > 100 µM | 79.7 µM | > 100 µM | > 100 µM | > 100 µM | > 100 µM |  |  |  |  |  |  |  |  |  |  | 
COc1cccc(N=Cc2c3ccccc3c(=O)n3c2oc2ccccc23)c1 | > 100 µM | > 100 µM | > 100 µM | > 100 µM |  | > 100 µM | > 100 µM | > 100 µM | > 100 µM | 48.7 µM | > 100 µM | 10.2 µM | 5.62 µM | 37.1 µM |  | 12.2 µM | 32.7 µM | 11.3 µM | 7.67 µM | 17.3 µM
CCCCn1c(-c2ccc(C(=O)O/N=C(\N)c3ccc(OC)cc3)cc2)nc(-c2ccccc2)c1-c1ccccc1 |  | > 100 µM |  |  |  | > 100 µM | > 100 µM | 3.87 µM |  |  | 2.75 µM |  |  |  |  | 3.07 µM | 2.9 µM | 1.84 µM |  | 
Cc1ccc(NC(=O)C2C(=O)N(c3ccc(C)c(C)c3)C(=O)/C2=N/O)cc1C (centres undefined) | > 100 µM | > 100 µM | > 100 µM | > 100 µM |  | > 100 µM | > 100 µM | > 100 µM | > 100 µM |  |  |  |  |  |  |  |  |  |  | 
O=C(CC(=O)N1N=C(c2ccccc2)C(N=Nc2ccc(Cl)cc2)C1=O)Nc1ccccc1Cl (centres undefined) | > 100 µM | 52.4 µM | > 100 µM | 78 µM | > 100 µM | > 100 µM | > 100 µM | > 100 µM | 71.1 µM |  |  |  |  |  |  |  |  |  |  | 
COC(=O)c1cc2c(c(C(=O)OC)c1O)C(=O)C=CC2=O | > 41.4 µM | > 58.1 µM | > 9.1 µM and 16.9 µM | > 55.2 µM | > 22 µM | > 66.9 µM | > 9.1 µM and 38.5 µM | > 74.3 µM | > 55.8 µM |  | > 9.1 µM |  | 3.49 µM | > 9.1 µM |  | > 9.1 µM | 18.4 µM | > 9.1 µM | > 9.1 µM | > 9.1 µM
Nc1c(-c2ccc(Br)cc2)[n+]([O-])c2ccccc2[n+]1[O-] | > 100 µM | > 100 µM | > 100 µM | > 100 µM |  | > 100 µM | > 100 µM | > 100 µM | > 100 µM |  |  |  |  |  |  |  |  |  |  | 
O=C(/C=C/c1ccccc1Cl)c1ccccc1Cl | 44.4 µM | 36.5 µM | 28.5 µM | 50.5 µM |  | 47.2 µM | 41.3 µM | 36 µM | 30.8 µM |  |  |  |  |  |  |  |  |  |  | 
COc1cc2c(/C=C3/C(=O)Nc4cccc(Cl)c43)c(Cl)n(Cc3ccccc3)c2cc1C | > 26.4 µM | 43.7 µM | 55.6 µM | > 71.5 µM |  | > 40.5 µM | > 100 µM | > 56.3 µM | 20.6 µM | 24.4 µM | 4.98 µM | 3.38 µM | 4.19 µM | 13.1 µM |  | 4.79 µM | 4.99 µM | 5.46 µM | 2.46 µM | 6.84 µM
CN(C)C(=S)/N=c1\ss/c(=N\C(=S)N(C)C)n1-c1ccc2c(c1)OCO2 | > 100 µM | > 100 µM | > 100 µM | > 100 µM | > 100 µM | > 100 µM |  |  | > 100 µM |  |  |  |  |  |  |  |  |  |  | 
Cc1ccc(C(=O)/C=C/c2ccccc2O)c(C)c1 | > 100 µM | > 100 µM | > 100 µM | > 100 µM |  | > 100 µM | 8.42 µM | > 100 µM | > 100 µM |  |  |  |  |  |  |  |  |  |  | 
N#CCCN(CCC#N)c1ccc(/C=C2\N=C(CN3C(=O)c4ccccc4C3=O)OC2=O)cc1 | > 100 µM | > 100 µM | > 100 µM | > 100 µM | > 100 µM | > 100 µM | > 100 µM | > 100 µM | > 100 µM |  |  |  |  |  |  |  |  |  |  | 
